Results on 15 compounds are retold here after patent publication US5393752A, “Methylpiperazinoazepine compounds, preparation and use thereof” (Therabel Research S.A./N.V., priority 1994, dated 1995).

Series [1] concerns the target T1, D2 dopaminergic receptors (Rattus norvegicus, UniProt P61169).
T1 construct: The striatum is dissected rapidly and homogenized; from tissue; host or cells: striatum of male Wistar rats, membrane preparation
Nature of the series: Affinity test, D2 dopaminergic receptors: (3H)-spiperone displacement in rat striatum membranes. More on the design: species or system male Wistar rats. The following applies: read-out: Inhibition, % (binding of 3H-spiperone). The method, then:
Characterization by (^3 H) spiperone displacement test.
The brain of male Wistar rats (200-250 g) is removed. The striatum is dissected rapidly and homogenized into 20 ml iced buffer ([…], pH=7.4, 25° C.) by means of a Teflon homogenizer. The homogenate is centrifuged at 4° C. at 10000 G during 10 minutes, the concentrate is washed two times with iced buffer and recentrifuged. The final concentrate is suspended into iced buffer (50 nM/HCl, pH=7.4) containing […], […] EDTA. After rehomogenization, the suspension is adjusted to 1 mg proteine per ml.
The binding of (^3 H)-spiperone is evaluated onto the following mixture: 200 μl membrane preparation (0.1-0.2 mg proteine), 100 μl (10^-6 M) test substance and […] buffer for a final volume of 1 ml. Control tubes, which are taken as a reference of the nonspecific binding, contain also 1 μM (+) butaclamol. The samples (in threefold) are then incubated with 0.5 nM (^3 H)spiperone at 25° C. for 60 minutes. This step is stopped by a quick vacuum filtration of the suspension through a glass-fiber filter GF/C. The filter is rinsed three times with 5 ml iced buffer.

In a further series the test system is muscarinergic receptors. The arrangement: species or system CFY rat. The following applies: 1.5 nM (3H) QNB, 25° C., pH 7.5, 60 minutes; non-specific binding with 10^-5 M atropin.
Series [2] is described as follows: Apomorphine Antagonism Test (in vivo), with locomotion and sedative effect. The conditions noted are these: examples: "At 20 mg/kg" heads the paragraph. An excerpt:
The following results are provided by way of example.

Series [3] in a line: Catalepsy Test (extrapyramidal effects). It is filed as in vivo. The conditions noted are these: for dose at which catalepsy appears: catalepsy for doses above / cataleptic effect starting from; for cataleptic effect (in words): catalepsy test. An excerpt: See in particular GRAY W. D., OSTERBERG A. C., RAUH C. E., Arch. Int. Pharmacodyn. 134, 198, 1961 and COSTALL B., OLLEY J. E., Neuropharmacology 10, 297, 1971.
This test is representative for the extrapyramidal effects present in numerous neuroleptics (unwanted secondary effect). The compounds of the invention cause very little catalepsy and seem therefore to be free from this unwanted secondary effect. However, some products have shown a slight catalepsy: […]

Where [4] appears, read: test substance 100 μl (10^-6 M) in final volume 1 ml, 0.5 nM (3H)spiperone, 25° C., 60 min, vs 1 μM (+)butaclamol.
Where [5] appears, read: scale from clozapine (20 mg/g) + to haloperidol (0.63 mg/kg) +++++.

The structures appear in SMILES notation. Like-named read-outs stand apart in the source and are kept apart here. Bounds are passed on as bounds.

T1 sequence (P61169 whole entry): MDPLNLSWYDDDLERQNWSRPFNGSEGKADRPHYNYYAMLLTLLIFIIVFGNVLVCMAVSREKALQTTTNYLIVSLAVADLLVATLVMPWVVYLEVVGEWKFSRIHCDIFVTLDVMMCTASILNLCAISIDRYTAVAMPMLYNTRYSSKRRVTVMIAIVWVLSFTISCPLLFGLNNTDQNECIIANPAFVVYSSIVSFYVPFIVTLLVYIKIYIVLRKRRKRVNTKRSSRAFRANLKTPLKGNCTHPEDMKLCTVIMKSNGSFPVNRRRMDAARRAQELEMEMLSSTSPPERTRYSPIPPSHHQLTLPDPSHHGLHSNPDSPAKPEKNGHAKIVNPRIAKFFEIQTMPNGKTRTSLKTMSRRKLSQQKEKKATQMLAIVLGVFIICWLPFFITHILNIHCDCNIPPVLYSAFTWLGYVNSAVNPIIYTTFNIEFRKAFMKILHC

In the case of `CN1CCN(C2=Nc3ccccc3Sc3ccc(Cl)cc32)CC1` [Clothiapine, reference compound], the inhibition – broadly, the percentage by which the read-out fell short of the control – in series [1] (setting [4]) came to 94.6%. Moreover, the “Inhibition, % (binding of 3H QNB)” value with muscarinergic receptors amounted to 38.05%. For `CN1CCN(C2=Nc3cc(Cl)ccc3Nc3ccccc32)CC1` [Clozapine, reference compound], the “Apomorphine antagonism, intensity of activity” value (shortened to “Apomorphine antagonism”) in series [2] (setting [5]) is listed as “+”. Further, in series [3], the “dose at which catalepsy appears” value is listed as at least 20 mg/kg and the “cataleptic effect (in words)” value is reported as “week cataleptic effect”. On to `CN1CCN(C2=Nc3ccccc3Nc3ccncc32)CC1` [Example 1, 11-(4-methylpiperazin-1-yl)-5H-pyrido(4,3-b)benzo-1,5-diazepine], for which the inhibition in series [1] came to 56.2%. For the same compound, in the series with muscarinergic receptors, the “Inhibition, % (binding of 3H QNB)” value is reported as 4.48%. Further, the “dose at which catalepsy appears” value in series [3] is reported as “above 40 mg/kg”. `CN1CCN(C2=Nc3cccnc3Sc3ccc(Cl)cc32)CC1.O=C(O)/C=C/C(=O)O` [Example 3, 8-chloro-6-(4-methylpiperazin-1-yl)pyrido(2,3-b)benzo-1,4-thiazepine fumarate]: the “dose at which catalepsy appears” value in series [3] is reported as “above 40 mg/kg”. Consider `CN1CCN(C2=Nc3ccccc3Oc3ncccc32)CC1.O=C(O)/C=C\C(=O)O` [Example 4, 5-(4-methylpiperazin-1-yl)pyrido(2,3-b)benzo-1,5-oxazepine maleate], for which, in series [3], the “dose at which catalepsy appears” value is at least 20 mg/kg and the “cataleptic effect (in words)” value is “slight cataleptic effect”. `CN1CCN(C2=Nc3cc(Cl)ccc3Oc3ncccc32)CC1.O=C(O)/C=C/C(=O)O` [Example 5, 8-chloro-5-(4-methylpiperazin-1-yl)pyrido(2,3-b)benzo-1,5-oxazepine fumarate]: the “Apomorphine antagonism” value in series [2] (setting [5]) was “+”. Still for that read-out and setting: to `CN1CCN(C2=Nc3cccnc3Oc3ccccc32)CC1.O=C(O)/C=C/C(=O)O` [Example 7, 6-(4-methylpiperazin-1-yl)pyrido(2,3-b)benzo-1,4-oxazepine fumarate] belongs “+”. As to `CN1CCN(C2=Nc3cccnc3Nc3ccc(Cl)cc32)CC1` [Example 10, 8-chloro-6-(4-methylpiperazin-1-yl)-11H-pyrido(2,3-b)benzo-1,4-diazepine], the inhibition in series [1] (setting [4]) was 31.5%. For the same compound, in the series with muscarinergic receptors, the “Inhibition, % (binding of 3H QNB)” value is 62.08%. The matching figures for `Cc1ccc2c(c1)C(N1CCN(C)CC1)=Nc1cccnc1N2` [Example 11, 6-(4-methylpiperazin-1-yl)-8-methyl-11H-pyrido(2,3-b)benzo-1,4-diazepine]: 24.8% and 67.3%. Regarding `CN1CCN(C2=Nc3cccnc3Nc3cc(Cl)ccc32)CC1` [Example 12, 9-chloro-6-(4-methylpiperazin-1-yl)-11H-pyrido(2,3-b)benzo-1,4-diazepine], the “Apomorphine antagonism” value in series [2] (setting [5]) is recorded as “+”.

As to `CN1CCN(C2=Nc3cccnc3Nc3ccc(F)cc32)CC1` [Example 13, 8-fluoro-6-(4-methylpiperazin-1-yl)-11H-pyrido(2,3-b)benzo-1,4-diazepine], the “Apomorphine antagonism” value in series [2] (setting [5]) is given as “+”.

Take `CN1CCN(C2=Nc3cccnc3N(C=O)c3ccccc32)CC1` [Example 17, 11-formyl-6-(4-methylpiperazin-1-yl)-11H-pyrido(2,3-b)benzo-1,4-diazepine]: the inhibition in series [1] (setting [4]) worked out at 22.8%. Also, the “Inhibition, % (binding of 3H QNB)” value with muscarinergic receptors came to 43.38%.

Consider `CN1CCN(C2=Nc3cnccc3Sc3ccccc32)CC1` [Example 18, 10-(4-methylpiperazin-1-yl)pyrido(4,3-b)benzo-1,4-thiazepine], for which, in series [1] (setting [4]), the inhibition stood at 50.2%. For the same compound, the “Inhibition, % (binding of 3H QNB)” value in the series on muscarinergic receptors was determined as 57.61%. As for `CN1CCN(C2=Nc3ccccc3[Se]c3ccccc32)CC1` [Example 19], in series [1], the inhibition worked out at 26.7%. In addition, the “Inhibition, % (binding of 3H QNB)” value in the series with muscarinergic receptors is 78.31%. In the case of `O=C(CCCN1CCC(O)(c2ccc(Cl)cc2)CC1)c1ccc(F)cc1` [Haloperidol, reference compound], in series [2] (scale from clozapine + to haloperidol (0.63 mg/kg) +++++), the “Apomorphine antagonism” value was “+++++”.
